From patent publication US10392391B2 (Vertex Pharmaceuticals Incorporated, priority 2012, dated 2019)

Target: ATR kinase (full-length ATR) (Homo sapiens (Human), UniProt Q13535)
Assay: ATR inhibition assay (radioactive-phosphate incorporation)
Format: biochemical
Details: not given
In short: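 Radiometric 33P incorporation by 5 nM full-length ATR into 800 μM target peptide with 10 μM [γ-33P]ATP, in 50 mM Tris/HCl pH 7.5, 10 mM MgCl2, 1 mM DTT, 7% DMSO, 25° C. Compound pre-incubated 10 minutes; reaction stopped after 24 hours, captured on phosphocellulose. Ki(app) from non-linear regression of initial rates.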

Chain of ATR kinase (full-length ATR) (Q13535 whole entry): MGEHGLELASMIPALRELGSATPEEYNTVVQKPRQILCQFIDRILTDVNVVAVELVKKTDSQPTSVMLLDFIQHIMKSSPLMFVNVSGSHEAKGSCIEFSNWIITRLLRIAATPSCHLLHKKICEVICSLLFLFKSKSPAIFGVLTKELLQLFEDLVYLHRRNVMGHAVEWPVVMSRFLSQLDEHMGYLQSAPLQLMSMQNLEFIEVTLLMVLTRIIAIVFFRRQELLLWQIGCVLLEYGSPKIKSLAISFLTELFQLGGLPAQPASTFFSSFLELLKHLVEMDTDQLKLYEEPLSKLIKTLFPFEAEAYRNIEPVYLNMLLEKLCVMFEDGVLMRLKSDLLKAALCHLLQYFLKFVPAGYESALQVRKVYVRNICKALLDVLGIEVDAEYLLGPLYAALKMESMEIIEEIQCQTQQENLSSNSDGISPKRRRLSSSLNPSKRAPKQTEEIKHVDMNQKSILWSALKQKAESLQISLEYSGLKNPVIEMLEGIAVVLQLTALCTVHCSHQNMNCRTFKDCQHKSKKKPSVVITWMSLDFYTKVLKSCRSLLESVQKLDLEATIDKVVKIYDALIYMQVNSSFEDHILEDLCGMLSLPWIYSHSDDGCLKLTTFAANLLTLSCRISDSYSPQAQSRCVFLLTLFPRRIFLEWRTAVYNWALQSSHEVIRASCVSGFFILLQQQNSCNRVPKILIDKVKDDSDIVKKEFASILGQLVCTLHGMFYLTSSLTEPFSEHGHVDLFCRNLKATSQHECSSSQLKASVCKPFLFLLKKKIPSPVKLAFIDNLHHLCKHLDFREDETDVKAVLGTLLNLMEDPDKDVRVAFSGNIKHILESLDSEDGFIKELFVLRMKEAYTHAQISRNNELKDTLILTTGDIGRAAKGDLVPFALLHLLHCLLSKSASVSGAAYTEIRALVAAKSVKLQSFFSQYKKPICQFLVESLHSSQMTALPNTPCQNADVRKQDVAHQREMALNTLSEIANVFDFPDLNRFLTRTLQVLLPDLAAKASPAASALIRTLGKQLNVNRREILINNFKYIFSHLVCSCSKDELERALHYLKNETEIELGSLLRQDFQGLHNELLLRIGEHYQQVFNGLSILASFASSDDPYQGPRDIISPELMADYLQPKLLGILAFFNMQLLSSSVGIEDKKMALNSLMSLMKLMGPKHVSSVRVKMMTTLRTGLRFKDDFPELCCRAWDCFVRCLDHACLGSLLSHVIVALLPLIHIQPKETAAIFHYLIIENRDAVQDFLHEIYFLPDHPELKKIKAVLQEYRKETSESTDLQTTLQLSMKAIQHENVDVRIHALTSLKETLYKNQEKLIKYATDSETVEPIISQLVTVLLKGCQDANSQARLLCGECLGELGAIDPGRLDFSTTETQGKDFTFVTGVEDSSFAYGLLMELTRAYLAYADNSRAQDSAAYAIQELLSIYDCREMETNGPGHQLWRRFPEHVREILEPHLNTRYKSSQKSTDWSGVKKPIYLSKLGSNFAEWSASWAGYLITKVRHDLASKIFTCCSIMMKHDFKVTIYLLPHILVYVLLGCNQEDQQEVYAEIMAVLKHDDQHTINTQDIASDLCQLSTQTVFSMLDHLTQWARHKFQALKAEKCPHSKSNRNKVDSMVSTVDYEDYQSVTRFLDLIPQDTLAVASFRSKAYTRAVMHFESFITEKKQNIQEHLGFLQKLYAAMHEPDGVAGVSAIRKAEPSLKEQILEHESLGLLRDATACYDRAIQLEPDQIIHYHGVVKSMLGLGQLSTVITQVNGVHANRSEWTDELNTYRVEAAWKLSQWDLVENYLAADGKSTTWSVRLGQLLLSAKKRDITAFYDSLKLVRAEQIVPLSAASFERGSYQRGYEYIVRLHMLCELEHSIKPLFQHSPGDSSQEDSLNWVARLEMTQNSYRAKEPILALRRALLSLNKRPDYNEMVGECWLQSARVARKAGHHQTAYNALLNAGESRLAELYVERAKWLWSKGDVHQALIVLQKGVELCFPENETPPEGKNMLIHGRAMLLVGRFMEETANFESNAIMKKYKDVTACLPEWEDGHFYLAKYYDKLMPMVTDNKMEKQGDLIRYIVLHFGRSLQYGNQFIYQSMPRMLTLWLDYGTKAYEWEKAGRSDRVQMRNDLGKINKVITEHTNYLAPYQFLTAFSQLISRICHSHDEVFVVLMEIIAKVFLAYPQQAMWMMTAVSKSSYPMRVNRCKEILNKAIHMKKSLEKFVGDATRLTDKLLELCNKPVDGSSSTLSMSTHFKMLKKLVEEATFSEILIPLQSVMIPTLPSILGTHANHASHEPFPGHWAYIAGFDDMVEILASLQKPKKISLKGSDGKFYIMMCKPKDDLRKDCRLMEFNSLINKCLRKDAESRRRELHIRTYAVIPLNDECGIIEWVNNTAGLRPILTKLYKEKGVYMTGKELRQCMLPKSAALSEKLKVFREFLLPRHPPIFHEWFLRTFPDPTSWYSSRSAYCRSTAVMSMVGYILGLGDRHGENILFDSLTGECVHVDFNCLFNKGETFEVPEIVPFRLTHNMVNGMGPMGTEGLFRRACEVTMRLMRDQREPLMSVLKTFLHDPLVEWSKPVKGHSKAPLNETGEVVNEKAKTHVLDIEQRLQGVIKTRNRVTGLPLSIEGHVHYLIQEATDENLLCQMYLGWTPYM

Ki [nM]	Compound
10 to 1000	C[N+]1([O-])CCN(C(=O)C2CCN(c3c(F)cncc3NC(=O)c3c(N)nn4cc(F)cnc34)CC2)CC1 [I-G-95, 4-(1-(3-(2-amino-6-fluoropyrazolo[1,5-a]pyrimidine-3-carboxamido)-5-fluoropyridin-4-yl)piperidine-4-carbonyl)-1-methylpiperazine 1-oxide]

Same assay, conditions: Ki(app), 5 nM full-length ATR, 10 μM ATP, 25° C.

Ki [nM]	Compound
10 to 1000	Nc1nn2cc(F)cnc2c1C(=O)Nc1cncc(Cl)c1N1CCC(C(=O)N2CCN3CCC2CC3)CC1 [I-G-66, N-(4-(4-(1,4-diazabicyclo[3.2.2]nonane-4-carbonyl)piperidin-1-yl)-5-chloropyridin-3-yl)-2-amino-6-fluoropyrazolo[1,5-a]pyrimidine-3-carboxamide]
10 to 1000	Nc1nn2cc(F)cnc2c1C(=O)Nc1cncc(Cl)c1N1CCC(C(=O)N2CCN3CCC2C3)CC1 (centres unmarked) [I-G-69, N-(4-(4-(1,4-diazabicyclo[3.2.1]octane-4-carbonyl)piperidin-1-yl)-5-chloropyridin-3-yl)-2-amino-6-fluoropyrazolo[1,5-a]pyrimidine-3-carboxamide]
10 to 1000	Nc1nn2cc(F)cnc2c1C(=O)Nc1cncc(F)c1N1CCC(C(=O)N2CCN3CC[C@H]2C3)CC1 [I-G-70, N-(4-(4-((5S)-1,4-diazabicyclo[3.2.1]octane-4-carbonyl)piperidin-1-yl)-5-fluoropyridin-3-yl)-2-amino-6-fluoropyrazolo[1,5-a]pyrimidine-3-carboxamide]
10 to 1000	Nc1nn2cc(F)cnc2c1C(=O)Nc1cncc(F)c1N1CCC(C(=O)N2CCN3CC[C@@H]2C3)CC1 [I-G-71, N-(4-(4-((5R)-1,4-diazabicyclo[3.2.1]octane-4-carbonyl)piperidin-1-yl)-5-fluoropyridin-3-yl)-2-amino-6-fluoropyrazolo[1,5-a]pyrimidine-3-carboxamide]
10 to 1000	Nc1nn2cc(F)cnc2c1C(=O)Nc1cncc(F)c1N1CCC(C(=O)N2CC3(COC3)C2)CC1 [I-G-72, N-(4-(4-(2-oxa-6-azaspiro[3.3]heptane-6-carbonyl)piperidin-1-yl)-5-fluoropyridin-3-yl)-2-amino-6-fluoropyrazolo[1,5-a]pyrimidine-3-carboxamide]
10 to 1000	Nc1nn2cc(F)cnc2c1C(=O)Nc1cncc(F)c1N1CCC(C(=O)N2CC(F)(F)C2)CC1 [I-G-73, 2-amino-N-(4-(4-(3,3-difluoroazetidine-1-carbonyl)piperidin-1-yl)-5-fluoropyridin-3-yl)-6-fluoropyrazolo[1,5-a]pyrimidine-3-carboxamide]
10 to 1000	Nc1nn2cc(F)cnc2c1C(=O)Nc1cncc(F)c1N1CCC(C(=O)N2CC(F)C2)CC1 [I-G-74, 2-amino-6-fluoro-N-(5-fluoro-4-(4-(3-fluoroazetidine-1-carbonyl)piperidin-1-yl)pyridin-3-yl)pyrazolo[1,5-a]pyrimidine-3-carboxamide]
10 to 1000	COC1(C)CN(C(=O)C2CCN(c3c(F)cncc3NC(=O)c3c(N)nn4cc(F)cnc34)CC2)C1 [I-G-75, 2-amino-6-fluoro-N-(5-fluoro-4-(4-(3-methoxy-3-methylazetidine-1-carbonyl)piperidin-1-yl)pyridin-3-yl)pyrazolo[1,5-a]pyrimidine-3-carboxamide]
10 to 1000	N#CC1CN(C(=O)C2CCN(c3c(F)cncc3NC(=O)c3c(N)nn4cc(F)cnc34)CC2)C1 [I-G-76, 2-amino-N-(4-(4-(3-cyanoazetidine-1-carbonyl)piperidin-1-yl)-5-fluoropyridin-3-yl)-6-fluoropyrazolo[1,5-a]pyrimidine-3-carboxamide]
10 to 1000	Nc1nn2cc(F)cnc2c1C(=O)Nc1cnccc1N1CCC(C(=O)N2CCC2)CC1 [I-G-77, 2-amino-N-(4-(4-(azetidine-1-carbonyl)piperidin-1-yl)pyridin-3-yl)-6-fluoropyrazolo[1,5-a]pyrimidine-3-carboxamide]
10 to 1000	COC1CN(C(=O)C2CCN(c3ccncc3NC(=O)c3c(N)nn4cc(F)cnc34)CC2)C1 [I-G-78, 2-amino-6-fluoro-N-(4-(4-(3-methoxyazetidine-1-carbonyl)piperidin-1-yl)pyridin-3-yl)pyrazolo[1,5-a]pyrimidine-3-carboxamide]
10 to 1000	COC1(C)CN(C(=O)C2CCN(c3ccncc3NC(=O)c3c(N)nn4cc(F)cnc34)CC2)C1 [I-G-79, 2-amino-6-fluoro-N-(4-(4-(3-methoxy-3-methylazetidine-1-carbonyl)piperidin-1-yl)pyridin-3-yl)pyrazolo[1,5-a]pyrimidine-3-carboxamide]
10 to 1000	Nc1nn2cc(F)cnc2c1C(=O)Nc1cnccc1N1CCC(C(=O)N2CC(F)(F)C2)CC1 [I-G-80, 2-amino-N-(4-(4-(3,3-difluoroazetidine-1-carbonyl)piperidin-1-yl)pyridin-3-yl)-6-fluoropyrazolo[1,5-a]pyrimidine-3-carboxamide]
10 to 1000	N#CC1CN(C(=O)C2CCN(c3ccncc3NC(=O)c3c(N)nn4cc(F)cnc34)CC2)C1 [I-G-81, 2-amino-N-(4-(4-(3-cyanoazetidine-1-carbonyl)piperidin-1-yl)pyridin-3-yl)-6-fluoropyrazolo[1,5-a]pyrimidine-3-carboxamide]
10 to 1000	Nc1nn2cc(F)cnc2c1C(=O)Nc1cnccc1N1CCC(C(=O)N2CC(F)C2)CC1 [I-G-82, 2-amino-6-fluoro-N-(4-(4-(3-fluoroazetidine-1-carbonyl)piperidin-1-yl)pyridin-3-yl)pyrazolo[1,5-a]pyrimidine-3-carboxamide]
10 to 1000	Nc1nn2cc(F)cnc2c1C(=O)Nc1cnccc1N1CCC(C(=O)N2CCCC2)CC1 [I-G-83, 2-amino-6-fluoro-N-(4-(4-(pyrrolidine-1-carbonyl)piperidin-1-yl)pyridin-3-yl)pyrazolo[1,5-a]pyrimidine-3-carboxamide]
10 to 1000	Nc1nn2cc(F)cnc2c1C(=O)Nc1cnccc1N1CCC(C(=O)N2CCC3(COC3)C2)CC1 [I-G-84, N-(4-(4-(2-oxa-6-azaspiro[3.4]octane-6-carbonyl)piperidin-1-yl)pyridin-3-yl)-2-amino-6-fluoropyrazolo[1,5-a]pyrimidine-3-carboxamide]
10 to 1000	Nc1nn2cc(F)cnc2c1C(=O)Nc1cnccc1N1CCC(C(=O)N2CCOCC2)CC1 [I-G-85, 2-amino-6-fluoro-N-(4-(4-(morpholine-4-carbonyl)piperidin-1-yl)pyridin-3-yl)pyrazolo[1,5-a]pyrimidine-3-carboxamide]
10 to 1000	CS(=O)(=O)C1CN(C(=O)C2CCN(c3c(F)cncc3NC(=O)c3c(N)nn4cc(F)cnc34)CC2)C1 [I-G-86, 2-amino-6-fluoro-N-(5-fluoro-4-(4-(3-(methylsulfonyl)azetidine-1-carbonyl)piperidin-1-yl)pyridin-3-yl)pyrazolo[1,5-a]pyrimidine-3-carboxamide]
10 to 1000	Nc1nn2cc(Cl)cnc2c1C(=O)Nc1cncc(F)c1N1CCC(C(=O)N2CCN3CCC2CC3)CC1 [I-G-87, N-(4-(4-(1,4-diazabicyclo[3.2.2]nonane-4-carbonyl)piperidin-1-yl)-5-fluoropyridin-3-yl)-2-amino-6-chloropyrazolo[1,5-a]pyrimidine-3-carboxamide]
10 to 1000	Nc1nn2cc(F)cnc2c1C(=O)Nc1cnccc1N1CCC(C(=O)N2CC3(COC3)C2)CC1 [I-G-88, N-(4-(4-(2-oxa-6-azaspiro[3.3]heptane-6-carbonyl)piperidin-1-yl)pyridin-3-yl)-2-amino-6-fluoropyrazolo[1,5-a]pyrimidine-3-carboxamide]
10 to 1000	CS(=O)(=O)C1CN(C(=O)C2CCN(c3ccncc3NC(=O)c3c(N)nn4cc(F)cnc34)CC2)C1 [I-G-89, 2-amino-6-fluoro-N-(4-(4-(3-(methylsulfonyl)azetidine-1-carbonyl)piperidin-1-yl)pyridin-3-yl)pyrazolo[1,5-a]pyrimidine-3-carboxamide]
10 to 1000	Nc1nn2cc(F)cnc2c1C(=O)Nc1cnccc1N1CCC(C(=O)N2CC3(CCO3)C2)CC1 [I-G-90, N-(4-(4-(1-oxa-6-azaspiro[3.3]heptane-6-carbonyl)piperidin-1-yl)pyridin-3-yl)-2-amino-6-fluoropyrazolo[1,5-a]pyrimidine-3-carboxamide]
10 to 1000	CCOC1CN(C(=O)C2CCN(c3ccncc3NC(=O)c3c(N)nn4cc(F)cnc34)CC2)C1 [I-G-91, 2-amino-N-(4-(4-(3-ethoxyazetidine-1-carbonyl)piperidin-1-yl)pyridin-3-yl)-6-fluoropyrazolo[1,5-a]pyrimidine-3-carboxamide]
10 to 1000	CC1(N2CCN(C(=O)C3CCN(c4c(F)cncc4NC(=O)c4c(N)nn5cc(F)cnc45)CC3)CC2)COC1 [I-G-92, 2-amino-6-fluoro-N-(5-fluoro-4-(4-(4-(3-methyloxetan-3-yl)piperazine-1-carbonyl)piperidin-1-yl)pyridin-3-yl)pyrazolo[1,5-a]pyrimidine-3-carboxamide]
10 to 1000	CO[C@@H]1CCN(C(=O)C2CCN(c3ccncc3NC(=O)c3c(N)nn4cc(F)cnc34)CC2)C1 [I-G-93, (R)-2-amino-6-fluoro-N-(4-(4-(3-methoxypyrrolidine-1-carbonyl)piperidin-1-yl)pyridin-3-yl)pyrazolo[1,5-a]pyrimidine-3-carboxamide]
10 to 1000	CO[C@H]1CCN(C(=O)C2CCN(c3ccncc3NC(=O)c3c(N)nn4cc(F)cnc34)CC2)C1 [I-G-94, (S)-2-amino-6-fluoro-N-(4-(4-(3-methoxypyrrolidine-1-carbonyl)piperidin-1-yl)pyridin-3-yl)pyrazolo[1,5-a]pyrimidine-3-carboxamide]
10 to 1000	CN1CC(N2CCN(C(=O)C3CCN(c4c(F)cncc4NC(=O)c4c(N)nn5cc(F)cnc45)CC3)CC2)C1 [I-G-96, 2-amino-6-fluoro-N-(5-fluoro-4-(4-(4-(1-methylazetidin-3-yl)piperazine-1-carbonyl)piperidin-1-yl)pyridin-3-yl)pyrazolo[1,5-a]pyrimidine-3-carboxamide]
